Test results taken from US20200138020A1, “MICROBICIDAL COMPOSITION” (DDP Specialty Electronic Materials US 8, LLC, priority 2017, published 2020).
Like-named read-outs stand apart in the source and are kept apart here.

Tests used:
[1] = tested on: Aspergillus brasiliensis ATCC 16404; experiment: Synergy test: high resolution MIC microtiter plate assay, Potato Dextrose Broth; format: cell-based; conditions: A. brasiliensis ATCC 16404, PDB, contact time 3 days; for SI (Synergy Index, Qa/QA+Qb/QB): <1 synergy; for MIC: Aspergillus brasiliensis, ATCC16404, 72 h, 25 °C
Excerpt: (§1) One measure of synergism is the industrially accepted method described by Kull, F. C.; Eisman, P. C.; Sylwestrowicz, H. D. and Mayer, R. L., in Applied Microbiology 9:538-541 (1961), using the ratio determined by the formula:
(§2) Qa/QA+Qb/QB=Synergy Index (“SI”)
(§3) wherein: • QA=concentration of compound A (first component) in ppm, acting alone, which produced an end point (MIC of Compound A). • Qa=concentration of compound A in ppm, in the mixture, which produced an end point. • QB=concentration of compound B (second component) in ppm, acting alone, which produced an end point (MIC of Compound B). • Qb=concentration of compound B in ppm, in the mixture, which produced an end point.
(§4) When the sum of Qa/QA and Qb/QB is greater than one, antagonism is indicated. […] The lower the SI, the greater is the synergy shown by that particular mixture. The minimum inhibitory concentration (MIC) of a microbicide is the lowest concentration tested under a specific set of conditions that prevents the growth of the tested microorganisms.
(§5) Synergy tests were conducted using standard microtiter plate assays with media designed for optimal growth of the test microorganism. Potato Dextrose Broth (PDB medium) was used for testing yeast and mold. In this method, a wide range of combinations of microbicides and other personal care raw materials was tested by conducting high resolution MIC assays in the presence of lactic acid. High resolution MICs were determined by adding varying amounts of microbicide to one column of a microtitre plate and doing subsequent […] dilutions using an automated liquid handling system to obtain a series of closely spaced endpoints.
(§6) The synergy of the combinations of the present invention was determined against a yeast, Candida albicans (C. albicans ATCC 10231) and a mold, Aspergillus brasiliensis (A. brasiliensis ATCC 16404). The yeast and mold were used at concentrations of 5×10^5 cells per mL. These microorganisms are representative of natural contaminants in many consumer and industrial applications.
(§7) In this test, First Component (A) was lactic acid and the Second Component (B) was phenethyl alcohol.
• Aspergillus brasiliensis • ATCC 16404 • Potato Dextrose Broth • Contact Time=3 days

[2] = tested on: Candida albicans ATCC 10231; experiment: as above; format: cell-based; conditions: C. albicans ATCC 10231, PDB, contact time 48 hours; for SI (Synergy Index, Qa/QA+Qb/QB): <1 synergy; for MIC: Candida albicans, ATCC10231, 25 °C
Excerpt: as §1, §2, §3, §4, §5, §6, §7
• Candida albicans • ATCC 10231 • Potato Dextrose Broth • Contact Time=48 hours

[3] = read-out: MIC for lactic acid alone (QA)
[4] = read-out: MIC for phenethyl alcohol alone (QB)

CC(O)C(=O)O (centres unmarked) [Lactic Acid, 2-hydroxypropanoic acid] was tested, and the “SI (Synergy Index, Qa/QA+Qb/QB)” value [1] was 1.00, the MIC [1, 3] was 30000 µg/mL and the “SI (Synergy Index, Qa/QA+Qb/QB)” value [2] was 1.00. For the same molecule, the MIC [2, 3] was 6000 µg/mL.

For OCCc1ccccc1 [Phenethyl Alcohol, 2-phenylethan-1-ol], the “SI (Synergy Index, Qa/QA+Qb/QB)” value [1] was 1.00, the MIC [1, 4] was 10000 µg/mL and the “SI (Synergy Index, Qa/QA+Qb/QB)” value [2] was 1.00. It also gave an MIC [2, 4] of 10000 µg/mL.
